# Experimental data reported in publication PMC3431023 (Journal of medicinal chemistry, 2012).
# Columns and labels:
# nAChR [1] = format: in vivo; conditions: mouse, s.c.
# nAChR [2] = format: in vivo; conditions: mouse, s.c., 30 min
# α3β4-nAChR = α3β4-nAChR (Rattus norvegicus, UniProt P04757+P12392); format: cell-based; conditions: 100 µM compound, rat α3β4 in Xenopus oocytes
# α4β2-nAChR [3] = molecular target: T1, α4β2-nAChR (Rattus norvegicus, UniProt P09483+P12390); format: cell-based
# Target sequence in this assay (P09483 31-630): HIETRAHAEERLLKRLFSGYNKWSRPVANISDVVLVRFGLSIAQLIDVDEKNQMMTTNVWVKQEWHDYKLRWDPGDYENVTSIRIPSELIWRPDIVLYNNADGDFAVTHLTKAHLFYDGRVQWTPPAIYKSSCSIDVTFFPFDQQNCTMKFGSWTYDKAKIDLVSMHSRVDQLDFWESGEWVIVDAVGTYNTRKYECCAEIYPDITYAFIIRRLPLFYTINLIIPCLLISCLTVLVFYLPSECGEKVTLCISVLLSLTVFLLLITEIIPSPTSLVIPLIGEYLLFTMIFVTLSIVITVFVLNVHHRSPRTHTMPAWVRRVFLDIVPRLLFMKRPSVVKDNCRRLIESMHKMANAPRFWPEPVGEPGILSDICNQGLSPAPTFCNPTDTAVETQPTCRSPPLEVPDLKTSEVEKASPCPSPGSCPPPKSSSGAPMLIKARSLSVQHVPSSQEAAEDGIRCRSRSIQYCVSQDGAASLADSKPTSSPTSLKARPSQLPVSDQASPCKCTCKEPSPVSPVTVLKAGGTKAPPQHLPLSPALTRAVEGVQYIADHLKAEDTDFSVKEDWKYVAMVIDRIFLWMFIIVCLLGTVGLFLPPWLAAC
# Target sequence in this assay (P12390 25-500): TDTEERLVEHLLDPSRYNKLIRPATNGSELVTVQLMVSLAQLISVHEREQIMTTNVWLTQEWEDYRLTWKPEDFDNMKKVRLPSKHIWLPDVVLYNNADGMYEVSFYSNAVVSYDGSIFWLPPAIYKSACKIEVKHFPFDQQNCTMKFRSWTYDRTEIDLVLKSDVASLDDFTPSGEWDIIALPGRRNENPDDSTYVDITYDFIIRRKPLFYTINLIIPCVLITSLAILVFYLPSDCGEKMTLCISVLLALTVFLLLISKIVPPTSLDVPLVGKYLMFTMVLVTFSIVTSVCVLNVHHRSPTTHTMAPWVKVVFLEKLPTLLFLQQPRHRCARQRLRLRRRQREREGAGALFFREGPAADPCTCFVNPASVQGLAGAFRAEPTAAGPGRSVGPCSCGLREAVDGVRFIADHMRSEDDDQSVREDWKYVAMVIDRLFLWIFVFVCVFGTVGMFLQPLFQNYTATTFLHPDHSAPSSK
# nAChR [4] = experiment: Antagonism of nicotine-induced antinociception, hot-plate test; format: in vivo; conditions: mouse
# [5] = tested on: discriminative stimulus effects of nicotine; conditions: rodents; cited from earlier work
# nAChR [6] = format: in vivo; conditions: mouse, s.c., tested 5 min after injection
# [7] = tested on: nicotine self-administration; conditions: rodents; cited from earlier work
# nAChR [8] = format: in vivo; conditions: mouse, s.c., tested 5 min after injection; (confidence limits)
# CPP produced by nicotine = conditions: rodents; cited from earlier work
# [9] = tested on: nicotine's ability to facilitate ICSS; conditions: rodents; cited from earlier work
# human α4β2-nAChRs = conditions: competitive antagonist of human α4β2-nAChRs; cited from earlier work
# α4β2-nAChR [10] = molecular target: T1, α4β2-nAChR; format: binding; conditions: Ki ratio
# Target sequence in this assay (P12390 25-500): as above
# Target sequence in this assay (P09483 31-630): as the sequence (P09483 31-630) above
# α4β2 = conditions: read-out: Antagonist Activity IC50 α4β2; cited from earlier work
# Chain of α3β4-nAChR (P04757 26-499): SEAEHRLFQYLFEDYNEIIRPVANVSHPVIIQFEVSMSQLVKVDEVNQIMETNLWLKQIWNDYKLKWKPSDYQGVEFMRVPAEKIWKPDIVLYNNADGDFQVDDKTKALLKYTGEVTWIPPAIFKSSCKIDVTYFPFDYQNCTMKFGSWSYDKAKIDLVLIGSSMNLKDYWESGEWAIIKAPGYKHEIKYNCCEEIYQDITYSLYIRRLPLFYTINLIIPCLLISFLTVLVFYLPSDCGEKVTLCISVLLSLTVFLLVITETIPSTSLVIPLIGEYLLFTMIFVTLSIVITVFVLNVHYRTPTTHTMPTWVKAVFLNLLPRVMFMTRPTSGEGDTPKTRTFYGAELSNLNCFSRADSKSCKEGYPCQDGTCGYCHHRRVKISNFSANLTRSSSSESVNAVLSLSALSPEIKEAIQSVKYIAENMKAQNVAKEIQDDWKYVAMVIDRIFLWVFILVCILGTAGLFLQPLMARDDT
# Chain of α3β4-nAChR (P12392 21-495): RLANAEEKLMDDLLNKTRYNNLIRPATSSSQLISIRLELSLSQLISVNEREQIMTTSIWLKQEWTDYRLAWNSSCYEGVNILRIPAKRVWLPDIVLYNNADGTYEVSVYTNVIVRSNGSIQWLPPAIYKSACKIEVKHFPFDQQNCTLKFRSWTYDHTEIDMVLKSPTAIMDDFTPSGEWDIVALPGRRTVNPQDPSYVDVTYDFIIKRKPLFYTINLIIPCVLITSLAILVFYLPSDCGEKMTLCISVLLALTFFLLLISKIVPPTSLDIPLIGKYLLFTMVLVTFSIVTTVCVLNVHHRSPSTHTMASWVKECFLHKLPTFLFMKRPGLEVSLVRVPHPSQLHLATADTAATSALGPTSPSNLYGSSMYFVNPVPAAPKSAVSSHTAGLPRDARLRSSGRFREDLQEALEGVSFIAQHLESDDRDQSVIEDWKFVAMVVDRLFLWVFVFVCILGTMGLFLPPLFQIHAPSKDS
SMILES,ED50 Spontaneous Activity (nAChR [1]),ED50 Hypothermia (nAChR [2]),Agonist Activity (% of max ACh at 100 µM of Compd) α3β4 (α3β4-nAChR),also measured
"NS(=O)(=O)c1ccc(-c2cc(C3CC4CCC3N4)cnc2F)cc1 (stereo not drawn) [Compound 5e, 2'-Fluoro-3'-(4-aminosulfonylphenyl)deschloroepibatidine]",no activity,no activity,–,–
"O=S(=O)(c1ccc(-c2cc(C3CC4CCC3N4)cnc2F)cc1)C(F)(F)F (stereo not drawn) [Compound 5f, 2'-Fluoro-3'-(4-trifluoromethanesulfonylphenyl)deschloroepibatidine]",only active in the spontaneous activity test,–,low level of agonist activity,–
"N#Cc1ccc(-c2cc(C3CC4CCC3N4)cnc2F)cc1 (stereo not drawn) [Compound 5c, 2'-Fluoro-3'-(4-cyanophenyl)deschloroepibatidine]",no activity,no activity,low level of agonist activity,–
"Fc1ncc(C2CC3CCC2N3)cc1-c1ccc(C(F)(F)F)cc1 (stereo not drawn) [Compound 5b, 2'-Fluoro-3'-(4'-trifluoromethylphenyl)deschloroepibatidine]",no activity,no activity,lacked agonist activity,"selectivity for α4β2- over α3β4-nAChR (antagonist potency) (α4β2-nAChR [3]; electrophysiology, IC50 ratio): no selectivity; selectivity for α4β2- over α7-nAChR (antagonist potency) (α4β2-nAChR [3]; electrophysiology, IC50 ratio): no selectivity; AD50 Hot-Plate (nAChR [4]): antagonists in the hot-plate test"
"O=[N+]([O-])c1ccc(-c2cc(C3CC4CCC3N4)cnc2F)cc1 (stereo not drawn) [Compound 5a, 2'-fluoro-3'-(4-nitrophenyl)deschloroepibatidine]",–,–,low level of agonist activity,effect on discriminative stimulus effects of nicotine [5]: attenuated; ED50 Hot-Plate (nAChR [6]): no functional activity; effect on i.v. nicotine self-administration [7]: dose-dependently blocked; ED50 Tail-Flick (nAChR [8]): no functional activity; effect on CPP produced by nicotine (CPP produced by nicotine): blocked; effect on nicotine's ability to facilitate ICSS [9]: reduced; potency higher than that of dihydro-β-erythroidine (6) (human α4β2-nAChRs): 17 fold
"NC(=O)c1ccc(-c2cc(C3CC4CCC3N4)cnc2F)cc1 (stereo not drawn) [Compound 5g, 2'-Fluoro-3'-(4-carbamoylphenyl)deschloroepibatidine]",only active in the hypothermia and spontaneous activity tests,only active in the hypothermia and spontaneous activity tests,low level of agonist activity,"Agonist Activity (% of max ACh at 100 µM of Compd) α4β2 (α4β2-nAChR [3]; 100 µM compound, rat α4β2 in Xenopus oocytes): low level of agonist activity; selectivity for α4β2 over α7 in radioligand binding assays (α4β2-nAChR [10]): > 15,000 fold"
"CS(=O)(=O)c1ccc(-c2cc(C3CC4CCC3N4)cnc2F)cc1 (stereo not drawn) [Compound 5d, 2'-Fluoro-3'-(4-methanesulfonylphenyl)deschloroepibatidine]",no activity,no activity,–,AD50 Hot-Plate (nAChR [4]): antagonists in the hot-plate test
c1cnc2cc3c(cc2n1)[C@@H]1CNC[C@H]3C1 [varenicline],–,–,–,IC50 (α4β2): 200 ± 30 nM
